Laboratory results as given in US20130252816A1, “HERBICIDAL COMPOSITION AND USE THEREOF” (Syngenta Crop Protection LLC, priority 2010, published 2013).

How the values were obtained:
Assay in all cases: Example 1: adjuvants alone, visual % damage, pots in glasshouse
Format in all cases: in vivo
Poa annua = tested on: Poa annua
Method: (§1) The effect of different adjuvants (see Table 1 below) on the growth of broadleaf weed and grass species was investigated and compared to untreated (water only) control weeds.
(§2) Plates, each with 48 pots measuring 2.7 cm diameter and 5 cm deep, were filled with TKS1 growing media (Floragard, Germany). Seeds of Taraxacum officinale, Stellaria media or Poa annua were sown on the surface (10 to 20 per pot). Plants were grown in glasshouse at a temperature of 18 to 20° C. and at 60% relative humidity.
(§3) Plants were treated 15 (Stellaria, Poa) and 34 (Taraxacum) days after sowing with 60 μl of a 1.25, 2.5, 5 and 10% (w/v) solution of adjuvant using a hand airbrush.
(§4) Visual assessment of the percentage damage to the plant was carried out 1 day and 6 days from application.
(§5) Damage was assessed as wilting, desiccation or any other kind of visual injury in comparison to the untreated control (water only).

Stellaria media = tested on: Stellaria media
Method: as §1, §2, §3, §4, §5

Taraxacum officinale = tested on: Taraxacum officinale
Method: as §1, §2, §3, §4, §5

Oleyl alcohol polyglycol ether with 10 moles of ethoxylation [GenapolO100]
avg % damage 1 DAA Poa annua (Poa annua; adjuvant 1.25% w/v): 0% | avg % damage 6 DAA Poa annua (Poa annua; adjuvant 1.25% w/v): 5% | avg % damage 1 DAA Poa annua (Poa annua; adjuvant 2.5% w/v): 0% | avg % damage 6 DAA Poa annua (Poa annua; adjuvant 2.5% w/v): 10% | avg % damage 1 DAA Poa annua (Poa annua; adjuvant 5% w/v): 0% | avg % damage 6 DAA Poa annua (Poa annua; adjuvant 5% w/v): 10% | avg % damage 1 DAA Poa annua (Poa annua; adjuvant 10% w/v): 0% | avg % damage 6 DAA Poa annua (Poa annua; adjuvant 10% w/v): 10% | avg % damage 1 DAA Stellaria media (Stellaria media; adjuvant 1.25% w/v): 0% | avg % damage 6 DAA Stellaria media (Stellaria media; adjuvant 1.25% w/v): 5% | avg % damage 1 DAA Stellaria media (Stellaria media; adjuvant 2.5% w/v): 5% | avg % damage 6 DAA Stellaria media (Stellaria media; adjuvant 2.5% w/v): 10% | avg % damage 1 DAA Stellaria media (Stellaria media; adjuvant 5% w/v): 15% | avg % damage 6 DAA Stellaria media (Stellaria media; adjuvant 5% w/v): 30% | avg % damage 1 DAA Stellaria media (Stellaria media; adjuvant 10% w/v): 50% | avg % damage 6 DAA Stellaria media (Stellaria media; adjuvant 10% w/v): 55% | avg % damage 1 DAA Taraxacum officinale (Taraxacum officinale; adjuvant 1.25% w/v): 0% | avg % damage 6 DAA Taraxacum officinale (Taraxacum officinale; adjuvant 1.25% w/v): 0% | avg % damage 1 DAA Taraxacum officinale (Taraxacum officinale; adjuvant 2.5% w/v): 5% | avg % damage 6 DAA Taraxacum officinale (Taraxacum officinale; adjuvant 2.5% w/v): 0% | avg % damage 1 DAA Taraxacum officinale (Taraxacum officinale; adjuvant 5% w/v): 5% | avg % damage 6 DAA Taraxacum officinale (Taraxacum officinale; adjuvant 5% w/v): 0% | avg % damage 1 DAA Taraxacum officinale (Taraxacum officinale; adjuvant 10% w/v): 5% | avg % damage 6 DAA Taraxacum officinale (Taraxacum officinale; adjuvant 10% w/v): 0%

Oleyl alcohol polyglycol ether with 20 moles of ethoxylation [GenapolO200]
avg % damage 1 DAA Poa annua (Poa annua; adjuvant 1.25% w/v): 0% | avg % damage 6 DAA Poa annua (Poa annua; adjuvant 1.25% w/v): 0% | avg % damage 1 DAA Poa annua (Poa annua; adjuvant 2.5% w/v): 0% | avg % damage 6 DAA Poa annua (Poa annua; adjuvant 2.5% w/v): 0% | avg % damage 1 DAA Poa annua (Poa annua; adjuvant 5% w/v): 0% | avg % damage 6 DAA Poa annua (Poa annua; adjuvant 5% w/v): 0% | avg % damage 1 DAA Poa annua (Poa annua; adjuvant 10% w/v): 0% | avg % damage 6 DAA Poa annua (Poa annua; adjuvant 10% w/v): 0% | avg % damage 1 DAA Stellaria media (Stellaria media; adjuvant 1.25% w/v): 0% | avg % damage 6 DAA Stellaria media (Stellaria media; adjuvant 1.25% w/v): 0% | avg % damage 1 DAA Stellaria media (Stellaria media; adjuvant 2.5% w/v): 0% | avg % damage 6 DAA Stellaria media (Stellaria media; adjuvant 2.5% w/v): 5% | avg % damage 1 DAA Stellaria media (Stellaria media; adjuvant 5% w/v): 0% | avg % damage 6 DAA Stellaria media (Stellaria media; adjuvant 5% w/v): 5% | avg % damage 1 DAA Stellaria media (Stellaria media; adjuvant 10% w/v): 15% | avg % damage 6 DAA Stellaria media (Stellaria media; adjuvant 10% w/v): 30% | avg % damage 1 DAA Taraxacum officinale (Taraxacum officinale; adjuvant 1.25% w/v): 0% | avg % damage 6 DAA Taraxacum officinale (Taraxacum officinale; adjuvant 1.25% w/v): 3% | avg % damage 1 DAA Taraxacum officinale (Taraxacum officinale; adjuvant 2.5% w/v): 0% | avg % damage 6 DAA Taraxacum officinale (Taraxacum officinale; adjuvant 2.5% w/v): 0% | avg % damage 1 DAA Taraxacum officinale (Taraxacum officinale; adjuvant 5% w/v): 0% | avg % damage 6 DAA Taraxacum officinale (Taraxacum officinale; adjuvant 5% w/v): 5% | avg % damage 1 DAA Taraxacum officinale (Taraxacum officinale; adjuvant 10% w/v): 10% | avg % damage 6 DAA Taraxacum officinale (Taraxacum officinale; adjuvant 10% w/v): 0%
